Test results as given in ChEMBL document CHEMBL1697781, “Assessment of the health effects of chemicals in humans: II. Construction of an adverse effects database for QSAR modeling” (Curr Drug Discov Technol, 2004).

How the values were obtained:
Conditions in all cases: human; call rule not given here
[1] = test system: Hepatotoxicity; assay: FDA HLAED, liver enzyme composite activity
[2] = test system: Hepatotoxicity; assay: FDA HLAED, alkaline phosphatase increase
[3] = test system: Hepatotoxicity; assay: FDA HLAED, serum glutamic oxaloacetic transaminase (SGOT) increase
[4] = test system: Hepatotoxicity; assay: FDA HLAED, serum glutamic pyruvic transaminase (SGPT) increase
[5] = test system: Hepatotoxicity; assay: FDA HLAED, lactate dehydrogenase (LDH) increase
[6] = test system: Hepatotoxicity; assay: FDA HLAED, gamma-glutamyl transferase (GGT) increase
Throughout, for GGT Increase - Index Value: reference of the scale not given here.
Throughout, for LDH Increase - Index Value: reference of the scale not given here.

CCc1c2c(nc3ccc(OC(=O)N4CCC(N5CCCCC5)CC4)cc13)-c1cc3c(c(=O)n1C2)COC(=O)[C@]3(O)CC [IRINOTECAN]
Composite Activity - Active [1]: 0 | Composite Activity - Marginal [1]: 0 | Composite Activity - Score [1]: Inactive | Alkaline Phosphatase Increase - Activity Score [2]: Inactive | Alkaline Phosphatase Increase - Index Value [2]: 4.1 | Alkaline Phosphatase Increase - Number of Reports [2]: < 4 | SGOT Increase - Activity Score [3]: Inactive | SGOT Increase - Index Value [3]: 6.1 | SGOT Increase - Number of Reports [3]: < 4 | SGPT Increase - Activity Score [4]: Inactive | SGPT Increase - Index Value [4]: 6.1 | SGPT Increase - Number of Reports [4]: < 4 | LDH Increase - Activity Score [5]: Inactive | LDH Increase - Index Value [5]: 4.1 | LDH Increase - Number of Reports [5]: < 4 | GGT Increase - Activity Score [6]: Inactive | GGT Increase - Index Value [6]: 2 | GGT Increase - Number of Reports [6]: < 4

FC(F)OC(Cl)C(F)(F)F (stereo not drawn) [ISOFLURANE]
Composite Activity - Active [1]: 0 | Composite Activity - Marginal [1]: 0 | Composite Activity - Score [1]: Inactive | Alkaline Phosphatase Increase - Activity Score [2]: Inactive | Alkaline Phosphatase Increase - Index Value [2]: 0.6 | Alkaline Phosphatase Increase - Number of Reports [2]: < 4 | SGOT Increase - Activity Score [3]: Inactive | SGOT Increase - Index Value [3]: 1 | SGOT Increase - Number of Reports [3]: >= 4 | SGPT Increase - Activity Score [4]: Inactive | SGPT Increase - Index Value [4]: 0.4 | SGPT Increase - Number of Reports [4]: < 4 | LDH Increase - Activity Score [5]: Inactive | LDH Increase - Index Value [5]: 0 | LDH Increase - Number of Reports [5]: < 4 | GGT Increase - Activity Score [6]: Inactive | GGT Increase - Index Value [6]: 0 | GGT Increase - Number of Reports [6]: < 4

NNC(=O)c1ccncc1 [ISONIAZID]
Composite Activity - Active [1]: 5 | Composite Activity - Marginal [1]: 0 | Composite Activity - Score [1]: Active | Alkaline Phosphatase Increase - Activity Score [2]: Active | Alkaline Phosphatase Increase - Index Value [2]: 12.7 | Alkaline Phosphatase Increase - Number of Reports [2]: >= 4 | SGOT Increase - Activity Score [3]: Active | SGOT Increase - Index Value [3]: 38.7 | SGOT Increase - Number of Reports [3]: >= 4 | SGPT Increase - Activity Score [4]: Active | SGPT Increase - Index Value [4]: 34.7 | SGPT Increase - Number of Reports [4]: >= 4 | LDH Increase - Activity Score [5]: Active | LDH Increase - Index Value [5]: 10 | LDH Increase - Number of Reports [5]: >= 4 | GGT Increase - Activity Score [6]: Active | GGT Increase - Index Value [6]: 8 | GGT Increase - Number of Reports [6]: >= 4

O=[N+]([O-])O[C@@H]1CO[C@H]2[C@@H]1OC[C@@H]2O [ISOSORBIDE MONONITRATE]
Composite Activity - Active [1]: 0 | Composite Activity - Marginal [1]: 0 | Composite Activity - Score [1]: Inactive | Alkaline Phosphatase Increase - Activity Score [2]: Inactive | Alkaline Phosphatase Increase - Index Value [2]: 0 | Alkaline Phosphatase Increase - Number of Reports [2]: < 4 | SGOT Increase - Activity Score [3]: Inactive | SGOT Increase - Index Value [3]: 0.2 | SGOT Increase - Number of Reports [3]: < 4 | SGPT Increase - Activity Score [4]: Inactive | SGPT Increase - Index Value [4]: 0.5 | SGPT Increase - Number of Reports [4]: < 4 | LDH Increase - Activity Score [5]: Inactive | LDH Increase - Index Value [5]: 0.2 | LDH Increase - Number of Reports [5]: < 4 | GGT Increase - Activity Score [6]: Inactive | GGT Increase - Index Value [6]: 0 | GGT Increase - Number of Reports [6]: < 4

CC1=C(/C=C/C(C)=C/C=C/C(C)=C\C(=O)O)C(C)(C)CCC1 [ISOTRETINOIN]
Composite Activity - Active [1]: 4 | Composite Activity - Marginal [1]: 0 | Composite Activity - Score [1]: Active | Alkaline Phosphatase Increase - Activity Score [2]: Active | Alkaline Phosphatase Increase - Index Value [2]: 45.7 | Alkaline Phosphatase Increase - Number of Reports [2]: >= 4 | SGOT Increase - Activity Score [3]: Active | SGOT Increase - Index Value [3]: 98.4 | SGOT Increase - Number of Reports [3]: >= 4 | SGPT Increase - Activity Score [4]: Active | SGPT Increase - Index Value [4]: 63.7 | SGPT Increase - Number of Reports [4]: >= 4 | LDH Increase - Activity Score [5]: Active | LDH Increase - Index Value [5]: 54 | LDH Increase - Number of Reports [5]: >= 4 | GGT Increase - Activity Score [6]: Inactive | GGT Increase - Index Value [6]: 0 | GGT Increase - Number of Reports [6]: < 4

COC(=O)C1=C(C)NC(C)=C(C(=O)OC(C)C)C1c1cccc2nonc12 (stereo not drawn) [ISRADIPINE]
Composite Activity - Active [1]: 0 | Composite Activity - Marginal [1]: 0 | Composite Activity - Score [1]: Inactive | Alkaline Phosphatase Increase - Activity Score [2]: Inactive | Alkaline Phosphatase Increase - Index Value [2]: 0.5 | Alkaline Phosphatase Increase - Number of Reports [2]: < 4 | SGOT Increase - Activity Score [3]: Inactive | SGOT Increase - Index Value [3]: 0.8 | SGOT Increase - Number of Reports [3]: >= 4 | SGPT Increase - Activity Score [4]: Inactive | SGPT Increase - Index Value [4]: 0.7 | SGPT Increase - Number of Reports [4]: >= 4 | LDH Increase - Activity Score [5]: Inactive | LDH Increase - Index Value [5]: 0.3 | LDH Increase - Number of Reports [5]: < 4 | GGT Increase - Activity Score [6]: Inactive | GGT Increase - Index Value [6]: 0.2 | GGT Increase - Number of Reports [6]: < 4
